Experimental data from patent US12441768B2, “Compositions and methods for treating endometriosis” (EndoMet Biosciences, Inc., priority 2018, dated 2025).
Where a SMILES comes first, the peptide text is derived from it. The star is where a group is joined. Bn = c1ccc(C*)cc1

Assays:
[1] = % Viability non-Wnt responsive cells
[2] = target: Wnt-responsive promoter (TCF/LEF); assay: Wnt-dependent luciferase reporter assay; type: cell-based, murine
Method in brief: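 Murine 3T3 fibroblasts carrying a TCF/LEF-driven luciferase reporter, stimulated with Wnt3a in the presence of increasing peptide concentrations or vehicle. Luminescence inhibition gave EC50 values in uM.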

β-catenin = target: T1, β-catenin (Homo sapiens, UniProt P35222); assay: KD50 measurement using competitive fluorescence polarization (FP) with labelled TCF4; type: binding; details: fluorescence polarization, β-catenin; for Kd: read-out: β-Cat FP KD
T1 sequence (P35222 1-781): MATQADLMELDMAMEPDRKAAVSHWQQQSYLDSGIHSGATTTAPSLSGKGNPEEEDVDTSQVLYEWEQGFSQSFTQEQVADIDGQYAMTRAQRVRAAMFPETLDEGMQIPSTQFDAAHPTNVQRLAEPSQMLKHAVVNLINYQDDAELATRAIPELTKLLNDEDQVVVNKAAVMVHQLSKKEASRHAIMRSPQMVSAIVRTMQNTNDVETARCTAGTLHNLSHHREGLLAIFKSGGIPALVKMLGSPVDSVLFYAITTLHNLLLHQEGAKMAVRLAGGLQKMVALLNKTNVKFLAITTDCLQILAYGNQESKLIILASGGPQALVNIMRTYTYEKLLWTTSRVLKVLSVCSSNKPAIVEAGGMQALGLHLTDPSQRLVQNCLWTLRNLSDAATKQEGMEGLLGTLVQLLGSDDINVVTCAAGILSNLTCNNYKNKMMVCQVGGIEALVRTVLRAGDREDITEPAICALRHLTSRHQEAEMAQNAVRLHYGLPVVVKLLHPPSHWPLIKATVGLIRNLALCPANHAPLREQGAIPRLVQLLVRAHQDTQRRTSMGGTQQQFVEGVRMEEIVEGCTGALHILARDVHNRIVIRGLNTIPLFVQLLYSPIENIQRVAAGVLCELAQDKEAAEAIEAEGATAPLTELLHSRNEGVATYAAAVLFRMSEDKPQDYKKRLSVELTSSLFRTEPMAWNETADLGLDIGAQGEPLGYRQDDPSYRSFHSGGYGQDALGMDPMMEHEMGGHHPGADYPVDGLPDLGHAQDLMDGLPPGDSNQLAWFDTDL
Method in brief: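 Polarization readout (470 nm excitation, 520 nm emission) tracks loss of labelled TCF4 binding to β-catenin as test compound competes. Conditions were 5 nM tracer, 100 nM β-catenin, room temperature, compound serially diluted from 10 nM to 30 uM; run in triplicate experiments.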

| Structure (SMILES) | EC50 [2] | β-Cat FP Hill slope (β-catenin) | Kd (β-catenin) | viability [1] |
| --- | --- | --- | --- | --- |
| CC[C@H](C)[C@H](NC(=O)[C@H](CC(C)C)NC(=O)[C@@H](NC(=O)C(C)(Cc1c[nH]c2ccccc12)NC(=O)[C@@H](N)CCSC)[C@@H](C)CC)C(=O)N[C@@H](CS)C(=O)N[C@@H](Cc1ccccc1)C(=O)N[C@@H](Cc1c[nH]c2ccccc12)C(=O)NCC(=O)O (some centres unmarked) [compound 132] (HELM PEPTIDE1{M.[CC(Cc1c[nH]c2ccccc12)(N[*:1])C(=O)[*:2]].I.L.I.C.F.W.G}$$$$V2.0) | 7.5 to 15 µM | 0.7 | < 0.4 µM | 102% |
| CC[C@H](C)[C@H](NC(=O)[C@H](Cc1c[nH]c2ccccc12)NC(=O)[C@@H](N)CCSC)C(=O)N[C@@H](CC(C)C)C(=O)N[C@H](C(=O)N[C@@H](CO)C(=O)NC(C)(Cc1ccccc1)C(=O)N[C@@H](Cc1c[nH]c2ccccc12)C(=O)NCC(=O)O)[C@@H](C)CC (some centres unmarked) [compound 128] (HELM PEPTIDE1{M.W.I.L.I.S.[CC(Cc1ccccc1)(N[*:1])C(=O)[*:2]].W.G}$$$$V2.0) | 7.5 to 15 µM | 2.15 | 0.4 to 1 µM | 132% |
| CC[C@H](C)[C@@H]1NC(=O)[C@H](CC(C)C)NC(=O)[C@H](Cc2ccccc2)NC(=O)[C@H](Cc2c[nH]c3ccccc23)NC(=O)[C@@H](N)CCCCNC(=O)CC[C@@H](C(=O)O)NC(=O)[C@H](Cc2c[nH]c3ccccc23)NC(=O)[C@H](Cc2ccccc2)NC(=O)[C@H](C)NC1=O [compound 201] (HELM PEPTIDE1{K.W.F.L.I.A.F.W.E}$PEPTIDE1,PEPTIDE1,1:R3-9:R3$$$V2.0) | 22.5 to 30 µM | 0.7 | 1 to 10 µM | 60.1% |
| CC[C@H](C)[C@H](NC(=O)[C@H](CC(C)C)NC(=O)[C@H](Cc1ccccc1)NC(=O)[C@H](Cc1c[nH]c2ccccc12)NC(=O)[C@@H](NC(=O)[C@H](CCCNC(=N)N)NC(=O)[C@H](CO)NC(=O)[C@@H](N)CCSC)[C@@H](C)O)C(=O)N[C@@H](CO)C(=O)N[C@@H](Cc1ccccc1)C(=O)N[C@@H](Cc1c[nH]c2ccccc12)C(N)=O [compound 76] (H-MSRTWFLISFW-NH2) | > 30 µM | – | > 30 µM | 105% |
| CC[C@H](C)[C@H](NC(=O)[C@H](CC(C)C)NC(=O)[C@H](Cc1ccccc1)NC(=O)[C@H](Cc1c[nH]c2ccccc12)NC(=O)[C@H](CCSC)NC(=O)[C@H](CCCNC(=N)N)NC(=O)[C@H](CO)NC(=O)[C@@H](N)CCSC)C(=O)N[C@@H](CO)C(=O)N[C@@H](CO)C(=O)N[C@@H](Cc1c[nH]c2ccccc12)C(=O)O [compound 99] (H-MSRMWFLISSW-OH) | 22.5 to 30 µM | 0.7 | 1 to 10 µM | 97.3% |
| CCOC[C@H](NC(=O)[C@H](CO)NC(=O)[C@@H](NC(=O)[C@H](CC(C)C)NC(=O)[C@H](Cc1ccccc1)NC(=O)[C@H](Cc1c[nH]c2ccccc12)NC(=O)[C@H](CCSC)NC(=O)[C@H](CCCNC(=N)N)NC(=O)[C@H](CO)NC(=O)[C@@H](N)CCSC)[C@@H](C)CC)C(=O)N[C@@H](Cc1c[nH]c2ccccc12)C(=O)O [compound 105] (H-MSRMWFLISS(Et)W-OH) | 7.5 to 15 µM | 0.7 | 1 to 10 µM | 96.8% |
| CC[C@H](C)[C@H](NC(=O)[C@H](CC(C)C)NC(=O)[C@H](Cc1c[nH]c2ccccc12)NC(=O)[C@H](Cc1c[nH]c2ccccc12)NC(=O)[C@H](CCSC)NC(=O)[C@H](CCCNC(=N)N)NC(=O)[C@H](CO)NC(=O)[C@@H](N)CCSC)C(=O)N[C@@H](CO)C(=O)N[C@@H](Cc1ccccc1)C(=O)N[C@@H](Cc1c[nH]c2ccccc12)C(N)=O [compound 80] (H-MSRMWWLISFW-NH2) | > 30 µM | – | > 30 µM | 101% |
| CC[C@H](C)[C@H](NC(=O)[C@H](C)NC(=O)[C@H](Cc1ccccc1)NC(=O)[C@H](Cc1c[nH]c2ccccc12)NC(=O)[C@@H](N)CCSC)C(=O)N[C@@H](CO)C(=O)N[C@@H](Cc1ccccc1)C(=O)N[C@@H](Cc1c[nH]c2ccccc12)C(=O)NCC(=O)O [compound 157] (H-MWFAISFWG-OH) | < 7.5 µM | – | > 30 µM | 99.9% |

The next lines start with results.

| EC50 [2] | β-Cat FP Hill slope (β-catenin) | Kd (β-catenin) | Structure (SMILES) | viability [1] |
| --- | --- | --- | --- | --- |
| 15 to 22.5 µM | 0.7 | 0.4 to 1 µM | CC[C@H](C)[C@H](NC(=O)[C@H](CC(C)C)NC(=O)[C@H](Cc1ccccc1)NC(=O)[C@H](Cc1c[nH]c2ccccc12)NC(=O)[C@@H](N)CCSC)C(=O)N[C@@H](CCCCN)C(=O)N[C@@H](Cc1ccccc1)C(=O)N[C@@H](Cc1ccc(O)cc1)C(=O)NCC(=O)O [compound 151] (H-MWFLIKFYG-OH) | 107% |
| < 7.5 µM | 3 | < 0.4 µM | CC[C@H](C)[C@H](NC(=O)[C@H](CC(C)C)NC(=O)[C@@H](NC(=O)[C@H](Cc1c[nH]c2ccccc12)NC(C)=O)[C@@H](C)CC)C(=O)N[C@@H](CO)C(=O)N[C@@H](Cc1ccccc1)C(=O)N[C@@H](Cc1c[nH]c2ccccc12)C(=O)NCC(=O)O [compound 195] (Ac-WILISFWG-OH) | 105% |
| < 7.5 µM | 0.7 | 1 to 10 µM | CC[C@H](C)[C@@H]1NC(=O)[C@H](CC(C)C)NC(=O)[C@H](Cc2ccccc2)NC(=O)[C@H](Cc2c[nH]c3ccccc23)NC(=O)[C@@H](N)CCCCNC(=O)C[C@@H](C(=O)O)NC(=O)[C@H](Cc2c[nH]c3ccccc23)NC(=O)[C@H](Cc2ccccc2)NC(=O)[C@H](CS)NC1=O [compound 172] (HELM PEPTIDE1{K.W.F.L.I.C.F.W.D}$PEPTIDE1,PEPTIDE1,1:R3-9:R3$$$V2.0) | 90.8% |
| < 7.5 µM | 0.7 | 10 to 30 µM | CC[C@H](C)[C@@H]1NC(=O)[C@H](CC(C)C)NC(=O)[C@H]([C@@H](C)CC)NC(=O)[C@H](Cc2c[nH]c3ccccc23)NC(=O)[C@@H](N)CCCCNC(=O)CC[C@@H](C(=O)O)NC(=O)[C@H](Cc2c[nH]c3ccccc23)NC(=O)[C@H](C)NC(=O)[C@H](CO)NC1=O [compound 184] (HELM PEPTIDE1{K.W.I.L.I.S.A.W.E}$PEPTIDE1,PEPTIDE1,1:R3-9:R3$$$V2.0) | 95.2% |
| 15 to 22.5 µM | 0.7 | 1 to 10 µM | CC[C@H](C)[C@H](NC(=O)[C@H](CC(C)C)NC(=O)[C@H](Cc1ccccc1)NC(=O)[C@H](Cc1c[nH]c2ccccc12)NC(=O)[C@H](CCSC)NC(=O)[C@H](CCCNC(=N)N)NC(=O)[C@H](CO)NC(=O)[C@@H](N)CCSC)C(=O)N[C@@H](CO)C(=O)N[C@@H](COCc1ccccc1)C(=O)N[C@@H](Cc1c[nH]c2ccccc12)C(=O)O [compound 106] (H-MSRMWFLISS(Bn)W-OH) | 105% |
| > 30 µM | – | > 30 µM | CSCC[C@H](NC(=O)[C@H](CCCNC(=N)N)NC(=O)[C@H](CO)NC(=O)[C@@H](N)CCSC)C(=O)N[C@@H](Cc1c[nH]c2ccccc12)C(=O)N[C@@H](Cc1ccccc1)C(=O)N[C@@H](CC(C)C)C(=O)N[C@H](C(=O)N[C@@H](CO)C(=O)N[C@@H](Cc1ccccc1)C(=O)N[C@@H](Cc1c[nH]c2ccccc12)C(=O)NCC(=O)O)[C@@H](C)O [compound 62] (H-MSRMWFLTSFWG-OH) | 104% |
| > 30 µM | – | > 30 µM | CCCCCC[C@H](N)C(=O)N[C@@H](Cc1c[nH]c2ccccc12)C(=O)N[C@@H](Cc1ccccc1)C(=O)N[C@@H](CC(C)C)C(=O)N[C@H](C(=O)N[C@@H](CS)C(=O)N[C@@H](Cc1ccccc1)C(=O)N[C@@H](Cc1c[nH]c2ccccc12)C(=O)NCC(=O)O)[C@@H](C)CC [compound 139] (HELM PEPTIDE1{[CCCCCC[C@H](N)C(=O)[*:2]].W.F.L.I.C.F.W.G}$$$$V2.0) | 99.5% |
| > 30 µM | – | > 30 µM | CC[C@H](C)[C@@H]1NC(=O)[C@H](CC(C)C)NC(=O)[C@H]([C@@H](C)CC)NC(=O)[C@H](Cc2c[nH]c3ccccc23)NC(=O)[C@H](CCSC)NC(=O)[C@@H](N)CCCCNC(=O)CNC(=O)[C@H](Cc2c[nH]c3ccccc23)NC(=O)[C@H](Cc2ccccc2)NC(=O)[C@H](CO)NC1=O [compound 71] (HELM PEPTIDE1{K.M.W.I.L.I.S.F.W.G}$PEPTIDE1,PEPTIDE1,1:R3-10:R2$$$V2.0) | 93.7% |
| < 7.5 µM | 0.7 | 10 to 30 µM | CC[C@H](C)[C@@H]1NC(=O)[C@H](CC(C)C)NC(=O)[C@H]([C@@H](C)CC)NC(=O)[C@H](Cc2c[nH]c3ccccc23)NC(=O)[C@@H](NC(C)=O)CCCCNC(=O)CC[C@@H](C(=O)O)NC(=O)[C@H](Cc2c[nH]c3ccccc23)NC(=O)[C@H](C)NC(=O)[C@H](CO)NC1=O [compound 188] (HELM PEPTIDE1{[ac].K.W.I.L.I.S.A.W.E}$PEPTIDE1,PEPTIDE1,2:R3-10:R3$$$V2.0) | 97.6% |
